Test system: C57BL/6 mice
Assay: In vivo tolerability: kidney and liver function markers
Conditions: 24 hours post injection, compared with PBS
Protocol: 10A1P16-MDOA (spleen specific) iPLNPs were administrated intravenously (IV) to C57BL/6 mice (0.25 mg kg−1). Lipopolysaccharide (LPS, 5 mg kg−1, IP) was used as the positive control and PBS (IV) was examined as the negative control. 24 hours post injection, kidney function (BUN and CREA) and liver function (ALT and AST) were evaluated. […] Data are presented as mean±s.d. (n=3 biologically independent mice). Statistical significance was analyzed by the two-tailed unpaired t-test: ****, P<0.0001; ***, P<0.001; **, P<0.01; *, P<0.05.

Lipopolysaccharide [LPS]
kidney function (BUN and CREA) and liver function (ALT and AST): severe kidney and liver injury
